Reference: patent publication US20240287089A1, “Preparation and Uses of 7-Azaindenoisoquinolines” (Purdue Research Foundation, priority 0001, published 2024)
Like-named read-outs stand apart in the source and are kept apart here.

How the values were obtained:
[1] = biological target: 3′-TAMRA-labeled MycG4 DNA; experiment: Fluorescence binding assay; details: 20° C., 100 mM K+ buffer, pH 7.0; read-out: Apparent Binding Affinity Kd, app
Experimental: Binding Affinity to the Myc G-Quadruplex. Binding affinity of eight 7-aza-8,9-methylenedioxyindenoisoquinolines to MycG4 was determined using a fluorescence binding assay with a 3′-TAMRA-labeled MycG4 DNA. Monitoring TAMRA emission upon drug titration afforded binding isotherms, from which apparent binding affinities, Kd,app, were derived.
Fluorescence-Based Binding Assays. Fluorescence-based binding assays were performed on a Jasco FP-8300 spectrofluorometer equipped with a temperature controller at 20° C. in a quartz cuvette with a 10 mm path length. 3′-TAMRA-labeled MycG4 DNA (Sigma-Aldrich) was diluted to 20 nM using a 75 mM KCl/25 mM potassium phosphate buffer, pH 7.0. […] Fluorescence intensity at 580 nm, the maximum for the free DNA, was plotted against drug:DNA ratio. The apparent binding dissociation constant, Kd,app, was derived for the binding of each compound. Using OriginPro software (OriginLab Corp., United States) the change in fluorescence intensity was fitted to a one-site binding equation,
where B0 is the initial fluorescence intensity, B is maximum change in fluorescence intensity, R is DNA concentration, and L is drug:DNA ratio.

[2] = test system: RAJI lymphoma cells; experiment: MTS cell viability IC50 assay; assay type: cell-based; details: 72 h
Experimental: Cytotoxicity Results in Raji Non-Hodgkin's Lymphoma Cells. MTS experiments were then conducted to test the anti-proliferative effects of 7-aza-8,9-methylenedioxyindenoisoquinolines in Raji cells. Cells were incubated at 2-2000 nM of each drug for 72 h, and cell viabilities were quantified using the MTS assay. […] This potency trend generally correlated with the western blot results, in which G106 and G108 […] show weaker Myc downregulation.
(§1) MTS Cell Viability IC50 Assay. Drug solutions for MTS IC50 assays of suspension cell lines were made from DMSO stocks by serial-dilutions in 1×PBS (10010-031, Gibco). To set up treatments, drug solutions were plated in triplicates to 96-well tissue culture plates, to which cell-containing media was added to a total volume of 100 μL/well. 100%-viability controls were untreated cells. 2000 cells/well were plated for all suspension cell lines except 3000 cells/well for KMS-27 and 10000 cells/well for CHLA-32. Blanks were cell-free media. Drug treatments were maintained for 72 hr at 37° C. with 5% CO2. To quantify cells, CellTiter 96 AQueous MTS Reagent Powder (G1111, Promega) was dissolved and mixed with phenazine methosulfate (PMS, Sigma-Aldrich P9625) according to manufacturer's instructions. MTS/PMS mix ([…]) was added to treatment wells, 100%-viability control wells, and blank wells. Colors were developed at 37° C. with 5% CO2 for 4 h and absorbance at 490 nm was measured by BioTek Synergy 4 system. To obtain %-viability, A490 values were corrected by blank subtraction, normalized to 100%-viability control, and averaged. Average %-viabilities were plotted against drug dosages to obtain dose-response curves. […] For adherent cell lines, the MTS IC50 assays were conducted the same way as for suspension cell lines except for cell plating and drug treatment. For cell plating, 50 μL of 2000 cells were plated in triplicates to a 96-well tissue culture plate. Cells were allowed sufficient time to become adherent. Serial-diluted drug solutions were made the same way as in the MTS IC50 assays. To set up treatments, drug solutions were mixed with media to two-fold of the final concentrations, and 50 μL of such drug-media mix was then added to 50 μL of plated cells.

[3] = test system: AMO-1; experiment: MTS GI50, Myc-dependent panel; assay type: cell-based; details: AMO-1, 72 h, read-out: GI50
Experimental: (§2) Cytotoxicity Results in Myc-dependent Cancer Cell Lines.
as §1

[4] = test system: ARD; experiment: MTS GI50, Myc-dependent panel; assay type: cell-based; details: ARD, 72 h; read-out: GI50
Experimental: as §2, §1

[5] = test system: CCRF-CRM; experiment: MTS GI50, Myc-dependent panel; assay type: cell-based; details: CCRF-CRM, 72 h; read-out: GI50
Experimental: as §2, §1

[6] = test system: CHLA-32; experiment: MTS GI50, Myc-dependent panel; assay type: cell-based; details: CHLA-32, 72 h; read-out: GI50
Experimental: as §2, §1

[7] = test system: CHLA-99; experiment: MTS GI50, Myc-dependent panel; assay type: cell-based; details: CHLA-99, 72 h; read-out: GI50
Experimental: as §2, §1

[8] = test system: HL-60; experiment: MTS GI50, Myc-dependent panel; assay type: cell-based; details: HL-60, 72 h, read-out: GI50
Experimental: as §2, §1

[9] = test system: K-562; experiment: MTS GI50, Myc-dependent panel; assay type: cell-based; details: K-562, 72 h, read-out: GI50
Experimental: as §2, §1

[10] = test system: KMS-27; experiment: MTS GI50, Myc-dependent panel; assay type: cell-based; details: KMS-27, 72 h; read-out: GI50
Experimental: as §2, §1

[11] = test system: Kasumi-1; experiment: MTS GI50, Myc-dependent panel; assay type: cell-based; details: Kasumi-1, 72 h, read-out: GI50
Experimental: as §2, §1

[12] = test system: L-363; experiment: MTS GI50, Myc-dependent panel; assay type: cell-based; details: L-363, 72 h, read-out: GI50
Experimental: as §2, §1

[13] = test system: MCF-7; experiment: MTS GI50, Myc-dependent panel; assay type: cell-based; details: MCF-7, 72 h, read-out: GI50
Experimental: as §2, §1

[14] = test system: MDA-MB-231; experiment: MTS GI50, Myc-dependent panel; assay type: cell-based; details: MDA-MB-231, 72 h, read-out: GI50
Experimental: as §2, §1

[15] = test system: MOLT-4; experiment: MTS GI50, Myc-dependent panel; assay type: cell-based; details: MOLT-4, 72 h, read-out: GI50
Experimental: as §2, §1

[16] = test system: RD-ES; experiment: MTS GI50, Myc-dependent panel; assay type: cell-based; details: 72 h, read-out: GI50
Experimental: as §2, §1

[17] = test system: RPMI-8226; experiment: MTS GI50, Myc-dependent panel; assay type: cell-based; details: RPMI-8226, 72 h, read-out: GI50
Experimental: as §2, §1

[18] = test system: RS4;11; experiment: MTS GI50, Myc-dependent panel; assay type: cell-based; details: RS4;11, 72 h, read-out: GI50
Experimental: as §2, §1

[19] = test system: SK-N-MC; experiment: MTS GI50, Myc-dependent panel; assay type: cell-based; details: 72 h, read-out: GI50
Experimental: as §2, §1

[20] = test system: TC-106; experiment: MTS GI50, Myc-dependent panel; assay type: cell-based; details: TC-106, 72 h; read-out: GI50
Experimental: as §2, §1

[21] = test system: TC-32; experiment: MTS GI50, Myc-dependent panel; assay type: cell-based; details: TC-32, 72 h, read-out: GI50
Experimental: as §2, §1

[22] = test system: TC-71; experiment: MTS GI50, Myc-dependent panel; assay type: cell-based; details: TC-71, 72 h; read-out: GI50
Experimental: as §2, §1

[23] = test system: THP-1; experiment: MTS GI50, Myc-dependent panel; assay type: cell-based; details: THP-1, 72 h, read-out: GI50
Experimental: as §2, §1

[24] = human, 6 h, 1 μM; for % Bound: plasma
Experimental: Analysis of Plasma Protein Binding and Stability in Human and Mouse Blood Plasma by Equilibrium Dialysis. Frozen plasma (stored at −80° C.) was thawed immediately in a 37° C. water bath. The working solutions of test compound and control compound were prepared in DMSO at 200 μM concentration, and the working solutions were spiked into plasma. The final concentration of compound was 1 μM. The final concentration of DMSO was 0.5%. Ketoconazole was used as positive control in the assay. The dialysis membranes were soaked in ultrapure water for 60 min to separate strips, then in 20% ethanol for 20 min, and then finally in dialysis buffer for 20 min. For equilibrium dialysis, each cell contained plasma sample (150 μL) and was dialyzed against an equal volume of dialysis buffer (PBS). The assay was performed in duplicate. The dialysis plate was sealed and incubated at 37° C. with 5% CO2 at 100 rpm for 6 h. At the end of incubation, samples (50 μL) from both buffer and plasma chambers were transferred to wells of a 96-well plate. Plasma (50 μL) was added to each buffer sample and an equal volume of PBS was added to the collected plasma sample. Cold acetonitrile (400 μL) containing internal standards (IS, 100 nM alprazolam, 200 nM labetalol, 200 nM imipramine and 2 μM ketoprofen) was added to precipitate protein and release compounds. Samples were vortexed for 2 min and centrifuged for 30 min at 3,220 g. An aliquot (100 μL) of the supernatant was diluted with ultra-pure H2O (100 μL), and the mixture was used for LC-MS/MS analysis. For stability determination in plasma, a spiked plasma sample (50 μL) was transferred to a new plate and incubated at 37° C., 5% CO2 for 0 and 6 h. At designated time points, PBS (50 μL) was added and mixed thoroughly, followed by the addition of room temperature quench solution [400 μL of acetonitrile containing internal standards (IS, 100 nM alprazolam, 200 nM labetalol, 200 nM imipramine and 2 μM ketoprofen)] to precipitate protein and release compounds. Samples were vortexed for 2 min and centrifuged for 30 min at 3,220 g. An aliquot (400 μL) of the supernatant was diluted by ultra-pure H2O, and the mixture was used for LC-MS/MS analysis. The concentrations of test compounds in the buffer and plasma chambers were determined from peak area ratios.

Structure (SMILES)	Kd [1] [nM]	IC50 ([2]; Homo sapiens, Raji) [nM]	GI50 ([3]; Homo sapiens, AMO1) [nM]	GI50 [4] [nM]	GI50 [5] [nM]	GI50 [6] [nM]	GI50 [7] [nM]	GI50 ([8]; Homo sapiens) [nM]	GI50 ([9]; Homo sapiens, K562) [nM]	GI50 [10] [nM]	GI50 ([11]; Homo sapiens) [nM]	GI50 ([12]; Homo sapiens) [nM]	GI50 ([13]; Homo sapiens, MCF7) [nM]	GI50 ([14]; Homo sapiens) [nM]	GI50 ([15]; Homo sapiens) [nM]	GI50 [16] [nM]	GI50 ([17]; Homo sapiens) [nM]	GI50 ([18]; Homo sapiens) [nM]	GI50 [20] [nM]	GI50 [22] [nM]	further results
CCNCCCn1c2c(c3cc(OC)c(OC)cc3c1=O)C(=O)c1cc3c(nc1-2)OCO3 [G104, 6-(3-(Ethylamino)propyl)-2,3-dimethoxy-5H-[1,3]dioxolo[4″,5″:5′,6′]pyrido [3′,2′:4,5]cyclopenta[1,2-c]isoquinoline-5,12(6H)-dione]	55	131	184	55	49	33	58	270	158	141	266	96	> 2000	476	13	20	190	38	157	122	GI50 ([19]; Homo sapiens): 137 nM; GI50 ([21]; Homo sapiens): 53 nM; GI50 ([23]; Homo sapiens): 358 nM; % Recovery [24]: 83.58%; % Bound [24]: 81.21%
COc1cc2c3c(n(CCCNCCO)c(=O)c2cc1OC)-c1nc2c(cc1C3=O)OCO2 [G105, 6-(3-((2-Hydroxyethyl)amino)propyl)-2,3-dimethoxy-5H-[1,3]dioxolo[4″,5″:5′,6′]pyrido[3′,2′:4,5]cyclopenta[1,2-c]isoquinoline-5,12(6H)-dione]	97	147	461	121	57	96	31	290	196	141	530	154	1390	806	12	22	559	34	202	197	GI50 ([19]; Homo sapiens): 173 nM; GI50 ([21]; Homo sapiens): 104 nM; GI50 ([23]; Homo sapiens): 300 nM; % Recovery [24]: 99.38%; % Bound [24]: 80.88%
COc1cc2c3c(n(CCCNCCO)c(=O)c2cc1OC)-c1cc2c(cc1C3=O)OCO2 [LMP744]	11			77	57	156	77			190						24			277	244	IC50 ([2]; RAJI): 120 nM; GI50 [3]: 285 nM; GI50 [8]: 354 nM; GI50 [9]: 219 nM; GI50 [11]: 721 nM; GI50 [12]: 119 nM; GI50 [13]: > 2000 nM; GI50 [14]: 968 nM; GI50 [15]: 4 nM; GI50 [17]: 620 nM; GI50 [18]: 30 nM; GI50 [19]: 237 nM; GI50 [21]: 121 nM; GI50 [23]: 305 nM
COc1cc2c3c(n(CCCN4CCOCC4)c(=O)c2cc1OC)-c1nc2c(cc1C3=O)OCO2 [G101, 2,3-Dimethoxy-6-(3-morpholinopropyl)-5H-[1,3]dioxolo[4″,5″:5′,6′]pyrido[3′,2′:4,5]cyclopenta[1,2-c]isoquinoline-5,12(6H)-dione]	249	340	1220	190	248	708	526	> 2000	1010	530	> 2000	342	> 2000	> 2000	113	608	905	283	848	756	GI50 ([19]; Homo sapiens): 698 nM; GI50 ([21]; Homo sapiens): 569 nM; GI50 ([23]; Homo sapiens): 1320 nM
COc1cc2c3c(n(CCCN4CCOCC4)c(=O)c2cc1OC)-c1cc2c(cc1C3=O)OCO2 [LMP400, indotecan]	301	190	738	126	316	812	773	1390	864	543	> 2000	214	> 2000	1900	239	472	989	336	605	1060	GI50 ([19]; Homo sapiens): 1050 nM; GI50 ([21]; Homo sapiens): 574 nM; GI50 ([23]; Homo sapiens): 915 nM
COc1cc2c3c(n(CCCNC(C)C)c(=O)c2cc1OC)-c1nc2c(cc1C3=O)OCO2 [G103, 6-(3-(Isopropylamino)propyl)-2,3-dimethoxy-5H-[1,3]dioxolo [4″,5″:5′,6′]pyrido[3′,2′:4,5]cyclopenta[1,2-c]isoquinoline-5,12(6H)-dione]		167	317	70	57	55	89	328	182	206	432	126	> 2000	644	19	31	234	53	202	153	GI50 ([19]; Homo sapiens): 150 nM; GI50 ([21]; Homo sapiens): 55 nM; GI50 ([23]; Homo sapiens): 602 nM; % Recovery [24]: 88.05%; % Bound [24]: 82.60%
COc1cc2c3c(n(CCCn4ccnc4)c(=O)c2cc1OC)-c1nc2c(cc1C3=O)OCO2 [G102, 6-(3-(1H-Imidazol-1-yl)propyl)-2,3-dimethoxy-5H-[1,3]dioxolo[4″,5″:5′,6′]pyrido[3′,2′:4,5]cyclopenta[1,2-c]isoquinoline-5,12(6H)-dione]	147	153	804	111	117	280	265	> 2000	580	238	> 2000	232	> 2000	1050	43	180	481	120	229	199	GI50 ([19]; Homo sapiens): 170 nM; GI50 ([21]; Homo sapiens): 127 nM; GI50 ([23]; Homo sapiens): 1020 nM
